From PMC9683716 (Science Advances, 2022)
Substitutions are numbered along the chain they refer to. pKi: −log10 of the molar value. Where “and” joins values, the source holds several entries; their conditions need not be identical. Identical values can stand only once.

Tests used:
Drosophila flies = experiment: Climbing assay; format: in vivo, Drosophila melanogaster
[1] = molecular target: T1, recombinant Naam T294E mutant (Drosophila melanogaster, UniProt Q9VDU7, T294E); format: biochemical
T1 sequence (Q9VDU7 1-357 T294E): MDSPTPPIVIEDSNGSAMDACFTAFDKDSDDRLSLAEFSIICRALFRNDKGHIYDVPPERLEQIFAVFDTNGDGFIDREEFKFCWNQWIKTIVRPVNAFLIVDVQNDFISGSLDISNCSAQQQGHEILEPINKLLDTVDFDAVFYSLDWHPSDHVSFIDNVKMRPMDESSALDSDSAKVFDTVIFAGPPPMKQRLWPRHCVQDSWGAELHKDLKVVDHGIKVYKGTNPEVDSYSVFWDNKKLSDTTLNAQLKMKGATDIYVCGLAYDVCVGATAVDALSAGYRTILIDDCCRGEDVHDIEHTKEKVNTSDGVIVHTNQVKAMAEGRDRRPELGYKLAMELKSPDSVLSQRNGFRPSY

B. burgdorferi PncA = B. burgdorferi PncA (Borreliella burgdorferi, UniProt G1FKW2); experiment: Naam inhibition assay, B. burgdorferi PncA; format: biochemical, Borrelia burgdorferi
[2] = molecular target: T2, Aedes albopictus (mosquito) Naam (Aedes albopictus, UniProt A0ABM2A4C4); experiment: Naam inhibition assay, mosquito Naam; format: biochemical
T2 sequence (A0ABM2A4C4 1-377): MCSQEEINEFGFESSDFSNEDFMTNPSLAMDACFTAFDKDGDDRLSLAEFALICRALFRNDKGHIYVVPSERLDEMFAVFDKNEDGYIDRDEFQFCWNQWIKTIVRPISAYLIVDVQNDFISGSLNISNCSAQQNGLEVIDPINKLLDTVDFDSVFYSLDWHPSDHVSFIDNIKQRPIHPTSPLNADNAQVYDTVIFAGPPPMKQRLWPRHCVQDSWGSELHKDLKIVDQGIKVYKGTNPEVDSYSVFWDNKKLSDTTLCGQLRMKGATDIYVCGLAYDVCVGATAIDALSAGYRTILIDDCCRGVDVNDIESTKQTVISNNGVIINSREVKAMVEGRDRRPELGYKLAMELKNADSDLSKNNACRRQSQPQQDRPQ

C. elegans PNC-2 = molecular target: T3, C. elegans PNC-2 (Caenorhabditis elegans, UniProt Q7YTI0); experiment: Naam inhibition assay, C. elegans PNC-2; format: biochemical
T3 sequence (Q7YTI0 1-316): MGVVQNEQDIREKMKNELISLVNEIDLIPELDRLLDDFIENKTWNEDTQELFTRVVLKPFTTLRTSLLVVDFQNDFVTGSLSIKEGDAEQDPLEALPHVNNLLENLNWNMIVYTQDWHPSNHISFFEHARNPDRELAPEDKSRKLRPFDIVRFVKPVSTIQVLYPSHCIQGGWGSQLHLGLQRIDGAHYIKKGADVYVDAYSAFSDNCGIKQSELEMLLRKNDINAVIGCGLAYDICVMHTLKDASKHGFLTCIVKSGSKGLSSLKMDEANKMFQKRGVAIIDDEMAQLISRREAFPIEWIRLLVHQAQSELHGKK

[3] = molecular target: T4, recombinant Drosophila Naam (Drosophila melanogaster, UniProt Q9VDU7); experiment: Naam enzyme activity and inhibition assay; format: biochemical
T4 sequence (Q9VDU7 1-357): T1 sequence (Q9VDU7 1-357 T294E) with E294T

mice = conditions: cited from earlier work
[4] = molecular target: Myzus persicae (aphid) Naam; experiment: Naam inhibition assay, aphid Naam; format: biochemical
[5] = molecular target: T5, Apis mellifera (honey bee) Naam2 (Apis mellifera, UniProt A0A7M7MP11); experiment: Naam enzyme activity and inhibition assay, honey bee Naam2; format: biochemical
T5 sequence (A0A7M7MP11 1-346): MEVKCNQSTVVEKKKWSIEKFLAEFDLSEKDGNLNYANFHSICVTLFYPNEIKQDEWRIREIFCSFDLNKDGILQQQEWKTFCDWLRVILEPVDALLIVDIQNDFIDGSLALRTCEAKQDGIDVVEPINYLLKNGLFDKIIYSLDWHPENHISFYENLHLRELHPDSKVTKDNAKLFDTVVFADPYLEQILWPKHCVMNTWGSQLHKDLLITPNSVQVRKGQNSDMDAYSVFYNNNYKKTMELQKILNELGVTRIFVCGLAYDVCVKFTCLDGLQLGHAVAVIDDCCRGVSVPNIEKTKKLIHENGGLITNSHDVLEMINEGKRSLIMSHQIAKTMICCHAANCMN

[6] = molecular target: Nilaparvata lugens (planthopper) Naam; experiment: Naam inhibition assay, planthopper Naam; format: biochemical
C. elegans PNC-1 = molecular target: T6, C. elegans PNC-1 (Caenorhabditis elegans, UniProt Q9N426); experiment: Naam inhibition assay, C. elegans PNC-1; format: biochemical
T6 sequence (Q9N426 25-335): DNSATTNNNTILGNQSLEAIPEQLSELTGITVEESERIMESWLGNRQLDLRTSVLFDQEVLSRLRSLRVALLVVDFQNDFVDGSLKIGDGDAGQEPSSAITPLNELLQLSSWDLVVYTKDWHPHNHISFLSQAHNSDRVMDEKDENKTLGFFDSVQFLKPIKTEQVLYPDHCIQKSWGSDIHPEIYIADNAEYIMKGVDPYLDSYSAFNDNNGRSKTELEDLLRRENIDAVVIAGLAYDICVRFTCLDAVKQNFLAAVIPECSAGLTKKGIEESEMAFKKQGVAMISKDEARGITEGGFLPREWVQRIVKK

Nan-Iav TRPV channels = conditions: cited from earlier work
[7] = molecular target: T7, recombinant Naam A265E mutant (Drosophila melanogaster, UniProt Q9VDU7, A265E)
T7 sequence (Q9VDU7 1-357 A265E): T1 sequence (Q9VDU7 1-357 T294E) with A265E, E294T

[8] = system: C. elegans N2 Bristol strain; experiment: Egg-laying assay; format: in vivo, Caenorhabditis elegans; conditions: wild-type nematodes, high concentrations

CC(=O)N1C(=O)N(NCc2cccnc2)Cc2cc(C(F)(C(F)(F)F)C(F)(F)F)ccc21 [pyrifluquinazon]
sensitivity of Naam knockdown flies (Drosophila flies; in vivo): still sensitive

NC(=O)c1cnccc1C(F)(F)F [TFNA-AM, 4-trifluoromethylnicotinamide]
reduction of climbing ability compared with FL (Drosophila flies; 2 mM, after 1 hour of feeding, score at 30 s): more effective than FL | difference to FL in reduction of climbing ability (Drosophila flies; 2 mM, after 3 hours of feeding, score at 30 s): not significant | effect on climbing scores in combination with NAM (Drosophila flies; 10 or 20 μM combined with NAM): significantly synergized the toxicity of NAM | negative geotaxis (climbing index at 30 s) (Drosophila flies; control flies, 2 mM for 3 hours): < 15% | climbing index (at 30 s) (Drosophila flies; in vivo): 68% and 52% | concentration that suppressed negative geotaxis (Drosophila flies; in vivo): ≥ 20 µM | effect of Naam knockdown on climbing index (Drosophila flies; in vivo): had no effect | effect on negative geotaxis (Drosophila flies; in vivo): virtually abolished | effect on negative geotaxis of Naam^A265E flies (Drosophila flies; in vivo): did not impair negative geotaxis | sensitivity of heterozygous control flies in climbing assays (Drosophila flies; in vivo): as sensitive as wild-type flies | effect on climbing scores, alone (Drosophila flies; low doses (10 or 20 μM) alone): negligible effects | resistance based on increase in Ki vs wild-type Naam [1]: 7.5 fold | pKi (B. burgdorferi PncA): 5.63 | pKi [2]: 5.96 | sensitivity of PNC-2 (C. elegans PNC-2): neither PNC-1 nor PNC-2 was sensitive | pKi [3]: 6.14 | enzymatic activity of Naam in the presence of compound ([3]; 100 μM): markedly reduced the enzyme activity | LD50 (median lethal dose) (mice): > 2000 mg/kg | pKi [4]: 7.10 | pKi [5]: 4.78 | fold less sensitive than the honey bee Naam1 ([5]; Ki Naam2 vs Naam1): 21 fold | fold less sensitive than the aphid Naam ([5]; Ki Naam2 vs aphid Naam): 209 fold | pKi [6]: 6.22 | sensitivity of PNC-1 (C. elegans PNC-1): neither PNC-1 nor PNC-2 was sensitive | activation of heterologously expressed Nan-Iav TRPV channels (Nan-Iav TRPV channels): neither FL nor its metabolite TFNA-AM activates | resistance based on increase in Ki vs wild-type Naam [7]: 415.7 fold

CC1=NNC(=O)N(/N=C/c2cccnc2)C1 [pymetrozine]
sensitivity of Naam knockdown flies (Drosophila flies; in vivo): still sensitive

O=Cc1cnccc1C(F)(F)F [TNAH, 4-(trifluoromethyl)nicotinaldehyde]
number of eggs laid [8]: significantly reduced the number of eggs laid

NC(=O)c1cccnc1 [NAM, nicotinamide]
effect on climbing scores (Drosophila flies; 2 or 5 mM): no significant effect | effect on climbing scores (Drosophila flies; feeding high concentrations (> 10 mM)): reduced the climbing scores | turnover number relative to wild-type Naam ([7]; A265E substitution): ~ 22%

O=Cc1cccnc1 [NAH, Nicotinaldehyde]
effect on flies in climbing assays (Drosophila flies; even at 5 mM): no significant effect | number of eggs laid [8]: significantly reduced the number of eggs laid | pKi [3]: 6.48
